# Test results as given in patent US3932400A, “Thiazole derivatives” (Sumitomo Chemical Company, Limited, priority 1972, dated 1976).
# Experiments:
# [1] = tested on: male mice; assay type: in vivo; conditions: intravenous; 10 male mice; up and down method
# [2] = tested on: β-adrenergic receptor; assay: β-adrenergic receptor blocking activity in open chest dog; assay type: in vivo; conditions: relative to propranolol = 1, pentbarbital-anesthetized open chest dog; for β-adrenergic receptor blocking activity in open chest dog (propranolol = 1), DDE: depressive effect on depressor effect (DDE) induced by intravenous isoproternol; for β-adrenergic receptor blocking activity in open chest dog (propranolol = 1), DPC: depressive effect on positive chronotropic (DPC) effect induced by intravenous isoproternol; for β-adrenergic receptor blocking activity in open chest dog (propranolol = 1), DPI: depressive effect on positive inotropic (DPI) effect induced by intravenous isoproternol
# Description: Note: A determination of β-adrenergic receptor blocking activity of test compounds in open chest dog was as follows. Thus dogs were anesthetized with pentbarbital sodium (administrated 30 - 40 mg./kg. intraveneously). Heart rate, myocardial contractile force and blood pressure were recorded with NIHON KODEN RM-150 polygraph. A depressive effect of test compounds on positive chronotropic (DPC), positive inotropic (DPI) and depressor effect (DDE) induced by isoproternol, which was injected intraveneously at a quarter interval, was determined.
SMILES,Acute toxicity LD50 [1],"β-adrenergic receptor blocking activity in open chest dog (propranolol = 1), DDE [2]","β-adrenergic receptor blocking activity in open chest dog (propranolol = 1), DPC [2]","β-adrenergic receptor blocking activity in open chest dog (propranolol = 1), DPI [2]"
"CC(C)(C)NCC(O)CSc1nc(-c2ccc(C(N)=O)s2)cs1 (stereo not shown) [Example 37, 2-(3'-t-butylamino-2'-hydroxypropylthio)-4-(5'-carbamoyl-2'-thienyl)thiazole]",86 mg/kg,8,15,15
"CC(=O)Nc1ccc(OCC(O)CNC(C)C)cc1 (stereo not shown) [Practolol, reference compound]",,0.08,0.5,0.7
